Results on six compounds are retold here after patent US20240352000A1, “NOVEL PYRIMIDINE-2,4-DIAMINE DERIVATIVES, PREPARATION METHOD THEREFOR, AND PHARMACEUTICAL COMPOSITION CONTAINING SAME AS ACTIVE INGREDIENT FOR PREVENTION OR TREATMENT OF CANCER” (KOREA RESEARCH INSTITUTE OF CHEMICAL TECHNOLOGY, priority 2021, published 2024).

The IC50 is the concentration that gives 50% inhibition.

In experiment [1] the test system is Ba/F3 EGFR del19. Nature of the experiment: CellTiter-Glo cell viability, Ba/F3 EGFR del19. The format is cell-based. To be noted: 72 hours. How it is done: (§1) An experiment to measure the activity of the compounds of the present invention against the mutant Ba/F3 EGFR cell line was performed as follows using the CellTiter-Glo system sold by Promega. The CellTiter-Glo assay is a method to confirm the cell viability by measuring ATP present in cells in cell culture. For the Ba/F3 EGFR del19, Ba/F3 EGFR del19/T790M, Ba/F3 del19/T790M/C797S mutant cell line, a cell line provided by Crown Bioscience was purchased and used. The Ba/F3 EGFR del19, Ba/F3 EGFR del19/T790M, Ba/F3 del19/T790M/C797S mutant cell line was cultured in RPMI containing 10% FBS and 1% penicillin-streptomycin with 1 μg of puromycin in an incubator at 37° C. and 5% CO2.
(§2) Analysis of the inhibitory ability effect of the compounds against EGFR was conducted according to the following analysis reaction recipe.
(§3) 2500 cells/90 μL were passaged and cultured in a 96-well cell culture plate, and after 24 hours, treated with the compound represented by Formula 1 at a concentration of 0, 0.01, 0.03, 0.1, 0.3, 1, 3, and 10 (μM). After reaction for 72 hours, the plate treated with the compound was left at room temperature for 30 minutes, then further treated with 100 μl of reagent, and shaken at room temperature for 10 minutes. Finally, the ratio of fluorescence values at 570 nm was obtained using the equipment to quantitatively measure and confirmed the inhibitory ability of the compounds. The measurement values measured at eight compound concentrations were analyzed using the Prism program (version 5.01, Graphpad Software, Inc.), and the IC50 value, which is an indicator of the inhibitory ability of the compound, was calculated.

The test system of experiment [2] is Ba/F3 EGFR L858R/T790M/C797S. Briefly: CellTiter-Glo cell viability, Ba/F3 EGFR L858R/T790M/C797S. The format is cell-based. To be noted: 72 hours. How it is done:
(§4) An experiment to measure the activity of the compounds of the present invention against the mutant Ba/F3 EGFR cell line was performed as follows using the CellTiter-Glo system sold by Promega. The CellTiter-Glo assay is a method to confirm the cell viability by measuring ATP present in cells in cell culture. The Ba/F3 EGFR L858R, Ba/F3 EGFR L858R/T790M, Ba/F3 EGFR L858R/T790M/C797S mutant cell line was used. The Ba/F3 EGFR L858R, Ba/F3 EGFR L858R/T790M, and Ba/F3 EGFR L858R/T790M/C797S mutant cell lines was cultured in RPMI containing 10% FBS and 1% penicillin-streptomycin with 1 μg of puromycin in an incubator at 37° C. and 5% CO2.
as §2
as §3, with “μl” for “μL”
Background: Cellular ATP, detected with luciferase, serves as a proxy for viable cell number.

Experiment [3] concerns the target EGFR A763_Y764insFHEA (Homo sapiens (Human), UniProt P00533, INS763FHEA). Nature of the experiment: HTRF enzyme assay, EGFR Ex20 insertion mutant enzyme. The format is biochemical. To be noted: recombinant enzyme, 37° C. 2 hours. How it is done:
An experiment to measure the activity of the compounds of the present invention against EGFR mutant enzymes was performed as follows using the HTRF system sold by Cisbio. For the EGFR mutant enzyme, EGFR A763_Y764insFHEA enzyme, a recombinant protein provided by SignalChem was purchased and used.
(§5) The composition of the assay buffer used for measuring the activity was 50 mM Tris-HCl pH 7.5, 100 mM NaCl, 7.5 mM MgCl2, 3 mM KCl, 0.01% Tween 20, 0.1% BSA, and 1 mM DTT. Here, an enzyme reaction was performed using ATP at a concentration of […] and a peptide substrate labeled with biotin at a concentration of […]. Analysis of the inhibitory effect of the compounds against the EGFR activity was conducted according to the following analysis reaction recipe. • Component 1: 4 μL of an EGFR mutant enzyme • Component 2: 2 μL of a compound solution • Component 3: 4 μL of ATP and a peptide labeled with biotin
(§6) The enzyme reaction was started by first mixing Component 1 and Component 2 and then adding Component 3. After reaction at 37° C. for 2 hours, […] of measurement solution consisting of streptavidin-XL665 and europium-labeled anti-phosphotyrosine antibody provided by Cisbio was added to the enzyme reaction solution and reacted at room temperature for 1 hour. Finally, the ratio of fluorescence values at 615 nm and 665 nm was obtained using the Envision equipment from Perkin-Elmer to quantitatively measure the enzyme activity and confirmed the inhibitory ability of the compounds. The measurement values measured at seven compound concentrations were analyzed using the Prism program (version 5.01, Graphpad Software, Inc.), and the IC50 value, which is an indicator of the inhibitory ability of the compound, was calculated.
(In general: Time-resolved FRET reads energy transfer from a long-lived donor to a nearby acceptor.)

Experiment [4] has as its system Ba/F3 EGFR L858R. Nature of the experiment: CellTiter-Glo cell viability, Ba/F3 EGFR L858R. The format is cell-based. The conditions noted are these: 72 hours. How it is done:
as §4, §2
as §3, with “μl” for “μL”

Experiment [5] concerns Ba/F3 EGFR L858R/T790M. Briefly: CellTiter-Glo cell viability, Ba/F3 EGFR L858R/T790M. To be noted: 72 hours. It counts as cell-based. The protocol:
as §4, §2
as §3, with “μl” for “μL”

The test system of experiment [6] is Ba/F3 EGFR del19/T790M/C797S. Briefly: CellTiter-Glo cell viability, Ba/F3 EGFR del19/T790M/C797S. The format is cell-based. To be noted: 72 hours. The protocol: as §1, §2, §3
For experiment [7], the system named is Ba/F3 EGFR del19/T790M. Nature of the experiment: CellTiter-Glo cell viability, Ba/F3 EGFR del19/T790M. The conditions noted are these: 72 hours. It counts as cell-based. How it is done: as §1, §2, §3
The subject of experiment [8] is Ba/F3 EGFR V769_D770insASV. Briefly: CellTiter-Glo cell growth, Ba/F3 EGFR Ex20 insertion mutant. The format is cell-based. To be noted: 72 hours. How it is done:
as §1, with “the” for “the mutant”, “EGFR V769_D770insASV mutant” for “EGFR”, “EGFR V769_D770insASV” for “EGFR del19, Ba/F3 EGFR del19/T790M, Ba/F3 del19/T790M/C797S”, “1 μg/ml” for “1 μg”
Analysis of the inhibitory ability effect of the compounds against the EGFR mutant cell growth was conducted according to the following analysis reaction recipe.
as §3, with “1000 cells/100 μL were” for “2500 cells/90 μL were”, “[…]. After reaction” for “and 10 (μM). After reaction”, “with 100 μL of reagent,” for “with 100 μl of reagent,”, “confirmed the cell growth inhibitory ability” for “confirmed the inhibitory ability”, “of the cell growth inhibitory ability” for “of the inhibitory ability”

The target of experiment [9] is HER2 A775_G776insYVMA (Homo sapiens (Human), UniProt P04626, INS775YVMA). Briefly: HTRF enzyme assay, HER2 mutant enzyme. The conditions noted are these: recombinant enzyme, 37° C. 2 hours. It counts as biochemical. How it is done:
An experiment to measure the activity of the compounds of the present invention against HER mutant enzymes was performed as follows using the HTRF system sold by Cisbio. For the HER2 mutant enzyme, HER2 A775_G776insYVMA mutant enzyme, a recombinant protein provided by Carna Biosciences was purchased and used.
as §5, with “performed using with ATP at” for “performed using ATP at”, “substrate labeled biotin at” for “substrate labeled with biotin at”, “against the HER2 A775_G776insYVMA mutant activity was” for “against the EGFR activity was”, “μL of a HER2 A775_G776insYVMA mutant enzyme” for “μL of an EGFR mutant enzyme”
as §6

Sequence of HER2 A775_G776insYVMA (P04626 other isoform, or with tags, fused parts or gaps del 1-675/ins YVMA behind 775 limits assumed): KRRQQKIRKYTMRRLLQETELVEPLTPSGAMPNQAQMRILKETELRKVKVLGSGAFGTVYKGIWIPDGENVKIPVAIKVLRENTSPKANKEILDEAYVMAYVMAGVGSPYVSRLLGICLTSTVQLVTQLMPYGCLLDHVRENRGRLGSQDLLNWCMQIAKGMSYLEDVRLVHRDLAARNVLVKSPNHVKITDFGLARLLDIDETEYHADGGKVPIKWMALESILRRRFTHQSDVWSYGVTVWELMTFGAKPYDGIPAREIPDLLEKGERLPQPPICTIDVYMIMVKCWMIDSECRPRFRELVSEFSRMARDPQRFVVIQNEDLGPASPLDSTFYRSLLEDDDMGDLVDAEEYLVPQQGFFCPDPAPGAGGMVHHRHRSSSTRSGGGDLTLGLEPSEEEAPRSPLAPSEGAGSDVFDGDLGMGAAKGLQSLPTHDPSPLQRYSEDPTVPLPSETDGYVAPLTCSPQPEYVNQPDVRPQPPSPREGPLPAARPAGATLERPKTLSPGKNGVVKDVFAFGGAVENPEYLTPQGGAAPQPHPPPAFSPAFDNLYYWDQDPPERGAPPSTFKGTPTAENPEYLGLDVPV
Sequence of EGFR A763_Y764insFHEA (P00533 other isoform, or with tags, fused parts or gaps del 1-694/ins FHEA behind 763 limits assumed): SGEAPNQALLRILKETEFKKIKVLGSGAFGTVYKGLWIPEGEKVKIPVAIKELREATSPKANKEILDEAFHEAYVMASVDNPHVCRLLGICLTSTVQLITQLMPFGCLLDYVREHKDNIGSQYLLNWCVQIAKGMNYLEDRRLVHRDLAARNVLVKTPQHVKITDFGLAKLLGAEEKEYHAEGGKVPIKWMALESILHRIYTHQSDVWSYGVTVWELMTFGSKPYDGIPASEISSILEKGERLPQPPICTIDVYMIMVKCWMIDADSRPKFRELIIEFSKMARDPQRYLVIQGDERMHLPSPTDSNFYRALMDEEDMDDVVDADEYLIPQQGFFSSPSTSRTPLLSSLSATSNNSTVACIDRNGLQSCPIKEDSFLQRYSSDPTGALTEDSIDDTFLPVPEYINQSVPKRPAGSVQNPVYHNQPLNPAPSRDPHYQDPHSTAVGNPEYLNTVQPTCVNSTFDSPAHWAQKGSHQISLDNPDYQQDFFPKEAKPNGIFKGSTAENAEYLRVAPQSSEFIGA

Consider `COc1cc(N2CCC(N3CCN(C)CC3)CC2)ccc1Nc1ncc(Cl)c(Nc2cccc3c2N(C(C)=O)CC3)n1` [Example 12, 1-(7-((5-chloro-2-((2-methoxy-4-(4-(4-methylpiperazin-1-yl)piperidin-1-yl)phenyl)amino)pyrimidin-4-yl)amino)indolin-1-yl)ethan-1-one], for which the concentration for half-maximal inhibition (IC50) in experiment [1] is less than 100 nM; in [2], greater than 100 nM; in experiment [3], 178 nM; in experiment [4] it was greater than 100 nM; in experiment [5], greater than 100 nM; in [6], greater than 100 nM. Further, the 50% inhibitory concentration (IC50) in [7] is greater than 100 nM; in [8], greater than 100 nM; in experiment [9] it was 25 nM.

`CCS(=O)(=O)N1CCc2cccc(Nc3nc(Nc4ccc(N5CCC(N6CCN(C)CC6)CC5)cc4OC)ncc3Cl)c21` [Example 13, 5-chloro-N4-(1-(ethylsulfonyl)indolin-7-yl)-N2-(2-methoxy-4-(4-(4-methylpiperazin-1-yl)piperidin-1-yl)phenyl)pyrimidine-2,4-diamine]: the IC50 is less than 100 nM in experiment [1]; greater than 100 nM in [2]; 91 nM in [3]; greater than 100 nM in [4]; greater than 100 nM in experiment [5]; greater than 100 nM in experiment [6]. In addition, the results for the IC50 in experiment [7], in experiment [8] and in experiment [9] were greater than 100 nM, greater than 100 nM and 26 nM, respectively.

On to `CCC(=O)N1CCc2cccc(Nc3nc(Nc4ccc(N5CCC(N6CCN(C)CC6)CC5)cc4OC)ncc3Cl)c21` [Example 14, 1-(7-((5-chloro-2-((2-methoxy-4-(4-(4-methylpiperazin-1-yl)piperidin-1-yl)phenyl)amino)pyrimidin-4-yl)amino)indolin-1-yl)propan-1-one], for which the IC50 in experiment [1] is less than 100 nM; in [2], greater than 100 nM; in experiment [3] it was greater than 100 nM; in [4] it was greater than 100 nM; in experiment [5], greater than 100 nM; in experiment [6], greater than 100 nM. Besides, the IC50 in experiment [7], in experiment [8] and in [9] was greater than 100 nM each time.

On to `COc1cc(N2CCC(N3CCN(C)CC3)CC2)ccc1Nc1ncc(Cl)c(Nc2cccc3c2N(C(C)=O)CCC3)n1` [Example 15, 1-(8-((5-chloro-2-((2-methoxy-4-(4-(4-methylpiperazin-1-yl)piperidin-1-yl)phenyl)amino)pyrimidin-4-yl)amino)-3,4-dihydroquinolin-1(2H)-yl)ethan-1-one], for which the IC50 in experiment [1], in experiment [2], in experiment [3], in [4], in experiment [5] and in [6] was greater than 100 nM in each case. Besides, the IC50 is greater than 100 nM in [7], greater than 100 nM in experiment [8] and 589 nM in experiment [9].

Turning to `CCC(=O)N1CCCc2cccc(Nc3nc(Nc4ccc(N5CCC(N6CCN(C)CC6)CC5)cc4OC)ncc3Cl)c21` [Example 16, 1-(8-((5-chloro-2-((2-methoxy-4-(4-(4-methylpiperazin-1-yl)piperidin-1-yl)phenyl)amino)pyrimidin-4-yl)amino)-3,4-dihydroquinolin-1(2H)-yl)propan-1-one], the IC50 in experiment [1], in experiment [2], in [3], in experiment [4], in experiment [5] and in [6] was greater than 100 nM each time. The IC50 in experiment [7], in [8] and in experiment [9] was greater than 100 nM throughout.

`COc1cc(N2CCC(N3CCNCC3)CC2)ccc1Nc1ncc(Cl)c(Nc2cccc3c2N(S(C)(=O)=O)CC3)n1` [Example 17, 5-chloro-N2-(2-methoxy-4-(4-(piperazin-1-yl)piperidin-1-yl)phenyl)-N4-(1-(methylsulfonyl)indolin-7-yl)pyrimidine-2,4-diamine]: the IC50 in experiment [1] is less than 100 nM; in experiment [2], greater than 100 nM; in experiment [3], 20 nM; in experiment [4] it was less than 100 nM; in [5], greater than 100 nM; in experiment [6] it was greater than 100 nM. Further, the IC50 in experiment [7] was less than 100 nM; in experiment [8], greater than 100 nM; in experiment [9] it was 4 nM.
